PubChem BioAssay AID2060621 (Molecular Pharmacology Branch, DTP, NCI, 2025)
Values joined by “and” are separate entries in the source; they are usually repeats but may differ in a detail not shown here. Equal entries are not always repeated.

Test system: 324938-238-R-J1-PDC complex spheroids viability
Assay: Anticancer human tumor 324938-238-R-J1-PDC patient-derived bladder carcinoma cell line growth inhibition [CLK]
Settings: for viability, T/C: stronger effect = lower value
Outline: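 Multi-cell-type spheroids combined patient-derived tumor cells with HUVEC endothelial cells and human mesenchymal stem cells. Paired agents were dosed in half-log steps down from about clinical Cmax, or from 10 microM where Cmax was unknown.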

[1] = curve of first compound, second compound 0.0316 µM
[2] = curve of first compound, second compound 0.1 µM
[3] = curve of first compound, second compound 0.316 µM
[4] = curve of first compound, second compound 1 µM
[5] = curve of first compound, second compound 3.16 µM
[6] = curve of first compound, second compound 10 µM
[7] = second compound 0.0316 µM, first compound 0.0316 µM
[8] = second compound 0.0316 µM, first compound 0.1 µM
[9] = second compound 0.0316 µM, first compound 0.316 µM
[10] = second compound 0.0316 µM, first compound 1 µM
[11] = second compound 0.0316 µM, first compound 3.16 µM
[12] = second compound 0.0316 µM, first compound 10 µM
[13] = second compound 0.1 µM, first compound 0.0316 µM
[14] = second compound 0.1 µM, first compound 0.1 µM
[15] = second compound 0.1 µM, first compound 0.316 µM
[16] = second compound 0.1 µM, first compound 1 µM
[17] = second compound 0.1 µM, first compound 3.16 µM
[18] = second compound 0.1 µM, first compound 10 µM
[19] = second compound 0.316 µM, first compound 0.0316 µM
[20] = second compound 0.316 µM, first compound 0.1 µM
[21] = second compound 0.316 µM, first compound 0.316 µM
[22] = second compound 0.316 µM, first compound 1 µM
[23] = second compound 0.316 µM, first compound 3.16 µM
[24] = second compound 0.316 µM, first compound 10 µM
[25] = second compound 1 µM, first compound 0.0316 µM
[26] = second compound 1 µM, first compound 0.1 µM
[27] = second compound 1 µM, first compound 0.316 µM
[28] = second compound 1 µM, first compound 1 µM
[29] = second compound 1 µM, first compound 3.16 µM
[30] = second compound 1 µM, first compound 10 µM
[31] = second compound 3.16 µM, first compound 0.0316 µM
[32] = second compound 3.16 µM, first compound 0.1 µM
[33] = second compound 3.16 µM, first compound 0.316 µM
[34] = second compound 3.16 µM, first compound 1 µM
[35] = second compound 3.16 µM, first compound 3.16 µM
[36] = second compound 3.16 µM, first compound 10 µM
[37] = second compound 10 µM, first compound 0.0316 µM
[38] = second compound 10 µM, first compound 0.1 µM
[39] = second compound 10 µM, first compound 0.316 µM
[40] = second compound 10 µM, first compound 1 µM
[41] = second compound 10 µM, first compound 3.16 µM
[42] = second compound 10 µM, first compound 10 µM
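Note: viability read after seven days of drug exposure.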
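Throughout, for viability, T/C: 100% = DMSO vehicle control wells.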

C=CC(=O)N1CCN(c2nc(=O)n(-c3c(C)ccnc3C(C)C)c3nc(-c4c(O)cccc4F)c(F)cc23)C(C)C1 (stereo unspecified) + CN1CCN(c2cc(C(=O)Nc3cc4cc(-c5cnn(C)c5)ccc4cn3)ccn2)CC1
IC50 [1]: > 10000 nM
IC50 [2]: > 10000 nM
IC50 [3]: < 31.6 nM
IC50 [4]: < 31.6 nM
IC50 [5]: < 31.6 nM
IC50 [6]: < 31.6 nM
viability, T/C [7]: 79.2%
viability, T/C [8]: 77.8%
viability, T/C [9]: 84.5%
viability, T/C [10]: 103%
viability, T/C [11]: 87.4%
viability, T/C [12]: 82.7%
viability, T/C [13]: 59.6%
viability, T/C [14]: 61.4%
viability, T/C [15]: 63.2%
viability, T/C [16]: 64.8%
viability, T/C [17]: 66.6%
viability, T/C [18]: 59.9%
viability, T/C [19]: 27.4%
viability, T/C [20]: 25%
viability, T/C [21]: 27.4%
viability, T/C [22]: 28.9%
viability, T/C [23]: 35.5%
viability, T/C [24]: 27.8%
viability, T/C [25]: 1.25%
viability, T/C [26]: 1.85%
viability, T/C [27]: 1.99%
viability, T/C [28]: 1.7%
viability, T/C [29]: 1.08%
viability, T/C [30]: 0.78%
viability, T/C [31]: 0.13%
viability, T/C [32]: 0.25%
viability, T/C [33]: 0.19%
viability, T/C [34]: 0.16%
viability, T/C [35]: 0.12%
viability, T/C [36]: 0.25%
viability, T/C [37]: 0.2%
viability, T/C [38]: 0.19%
viability, T/C [39]: 0.18%
viability, T/C [40]: 0.15%
viability, T/C [41]: 0.16%
viability, T/C [42]: 0.33%

Nc1ccccc1NC(=O)c1ccc(CNC(=O)OCc2cccnc2)cc1 + CN1CCN(c2cc(C(=O)Nc3cc4cc(-c5cnn(C)c5)ccc4cn3)ccn2)CC1
IC50 [1]: 1200 nM
IC50 [2]: 173 nM
IC50 [3]: < 31.6 nM
IC50 [4]: < 31.6 nM
IC50 [5]: < 31.6 nM
IC50 [6]: < 31.6 nM
viability, T/C [7]: 80.2%
viability, T/C [8]: 88.1%
viability, T/C [9]: 70.5%
viability, T/C [10]: 52.5%
viability, T/C [11]: 32.2%
viability, T/C [12]: 14.2%
viability, T/C [13]: 58.5%
viability, T/C [14]: 50%
viability, T/C [15]: 44.8%
viability, T/C [16]: 39.6%
viability, T/C [17]: 30.6%
viability, T/C [18]: 7.44%
viability, T/C [19]: 21.6%
viability, T/C [20]: 26%
viability, T/C [21]: 20.6%
viability, T/C [22]: 21.1%
viability, T/C [23]: 24.1%
viability, T/C [24]: 0.19%
viability, T/C [25]: 1.99%
viability, T/C [26]: 3.65%
viability, T/C [27]: 4%
viability, T/C [28]: 2.6%
viability, T/C [29]: 0.16%
viability, T/C [30]: 0.13%
viability, T/C [31]: 0.13%
viability, T/C [32]: 0.14%
viability, T/C [33]: 0.15%
viability, T/C [34]: 0.1%
viability, T/C [35]: 0.1%
viability, T/C [36]: 0.16%
viability, T/C [37]: 0.06%
viability, T/C [38]: 0.13%
viability, T/C [39]: 0.14%
viability, T/C [40]: 0.13%
viability, T/C [41]: 0.18%
viability, T/C [42]: 0.2%

Cn1ncnc1[C@H]1c2n[nH]c(=O)c3cc(F)cc(c23)N[C@@H]1c1ccc(F)cc1
viability, T/C (compound 0.000316 µM): 84.5% and 92.7%
viability, T/C (compound 0.001 µM): 78.8% and 76.2%
viability, T/C (compound 0.00316 µM): 60% and 68.3%
viability, T/C (compound 0.01 µM): 50% and 55.5%
viability, T/C (compound 0.0316 µM): 37.4% and 33.3%
viability, T/C (compound 0.1 µM): 28.4% and 24.7%
IC50 (curve of compound): 9.12 nM and 11.8 nM
